# Measured values: BindingDB's records for doi:10.1002/cbic.201402321 (The University of Texas At Austin, 2014)
# Molecular target: T1, Eukaryotic elongation factor 2 kinase (Homo sapiens, UniProt O00418)
# T1 sequence (O00418 whole entry): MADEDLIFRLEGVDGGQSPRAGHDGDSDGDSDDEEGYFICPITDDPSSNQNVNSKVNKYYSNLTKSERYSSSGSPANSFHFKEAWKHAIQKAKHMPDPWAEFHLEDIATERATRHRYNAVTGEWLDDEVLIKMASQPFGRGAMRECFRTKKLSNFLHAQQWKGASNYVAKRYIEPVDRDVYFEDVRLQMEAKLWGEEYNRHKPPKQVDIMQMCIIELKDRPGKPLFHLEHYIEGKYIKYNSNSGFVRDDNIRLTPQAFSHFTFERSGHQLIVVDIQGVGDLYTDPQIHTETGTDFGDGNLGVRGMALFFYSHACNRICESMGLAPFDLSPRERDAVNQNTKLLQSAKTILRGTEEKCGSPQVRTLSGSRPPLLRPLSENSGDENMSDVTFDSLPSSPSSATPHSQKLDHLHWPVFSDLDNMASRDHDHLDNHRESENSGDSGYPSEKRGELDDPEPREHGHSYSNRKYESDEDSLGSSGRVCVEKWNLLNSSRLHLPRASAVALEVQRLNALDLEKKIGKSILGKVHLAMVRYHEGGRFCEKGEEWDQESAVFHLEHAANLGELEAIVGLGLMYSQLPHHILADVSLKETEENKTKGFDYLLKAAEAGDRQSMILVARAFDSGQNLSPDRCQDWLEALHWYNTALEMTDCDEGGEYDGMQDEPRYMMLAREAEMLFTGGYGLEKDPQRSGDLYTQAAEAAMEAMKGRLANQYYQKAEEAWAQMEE
# Experiment: Kinase assay
# Description: WT eEF-2K (2 nM) was preincubated with various concentrations of inhibitors (0-1000 uM) in assay buffer containing CaCl2 (150 uM), calmodulin (1 uM), triton X-100 (0.01%), and peptide substrate (50 uM) for 60 min. The reactions were started by addition of [gamma-P32]-ATP (100 uM, specific activity = 1000 cpm/pmol).
row,SMILES,IC50
1,"N#CC1C(=O)NC(=O)C(C#N)C1c1c(Cl)cccc1Cl (stereo unspecified) [4‐(2,6‐dichlorophenyl)‐2,6‐dioxopiperidine‐3,5‐ dicarbonitrile (5)]",57 µM
2,"N#CC1C(=O)NC(=O)C(C#N)C1c1cccc(O)c1 (stereo unspecified) [4‐(3‐hydroxyphenyl)‐2,6‐dioxopiperidine‐3,5‐ dicarbonitrile (4)]",66 µM
3,"Cc1ccc(C2C(C#N)C(=O)NC(=O)C2C#N)cc1 (stereo unspecified) [4‐(4‐methylphenyl)‐2,6‐dioxopiperidine‐3,5‐ dicarbonitrile (3)]",46 µM

# Molecules with a lower IC50, results first:
row,IC50,SMILES
1,30 µM,"N#CC1C(=O)NC(=O)C(C#N)C1c1ccc(Cl)c(Cl)c1 (stereo unspecified) [4-(3,4-dichlorophenyl)-2,6-dioxopiperidine-3,5-dicarbonitrile (2)]"
2,25 µM,"COc1cccc(C2C(C#N)C(=O)NC(=O)C2C#N)c1 (stereo unspecified) [4-(3-methoxyphenyl)-2,6-dioxo-3,5-piperidinedicarbonitrile (MDP)]"
3,33 µM,"Cc1ccccc1C1C(C#N)C(=O)NC(=O)C1C#N (stereo unspecified) [4‐(2‐methylphenyl)‐2,6‐dioxopiperidine‐3,5‐ dicarbonitrile (1)]"
